In the supplement of paper PMC6723410:

Tested on: GUMC-403
Experiment: viability at highest tested concentration (max response) relative to DMSO (% of DMSO control); higher = less cytotoxic
Details: library / dose series: MIPE library, 11-point 1:3 dilution, 48 h
Outline: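 Viability at the highest tested concentration is given relative to vehicle control. For this, conditionally reprogrammed patient-derived GUMC-403 papilloma cells at 700/well in 1536-well plates were exposed to 23 nL of pinned compound for 48 h. Luminescence from CellTiter-Glo was read on a ViewLux and scaled between empty wells (0%) and vehicle wells (100%).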

CC[C@]1(O)C[C@@H]2CN(CCc3c([nH]c4ccccc34)[C@@](C(=O)OC)(c3cc4c(cc3OC)N(C)[C@H]3[C@@](O)(C(N)=O)[C@H](O)[C@]5(CC)C=CCN6CC[C@]43[C@@H]65)C2)C1
viability (top concentration 46.1 µM): 114

O=C(NC1CCOCC1)c1ccc(-c2cc(-c3c[nH]nc3-c3ccccn3)ccn2)cc1
viability (top concentration 46.1 µM): 159

CC(C)NCC(O)COc1ccc(CCOCC2CC2)cc1 (stereo not drawn)
viability (top concentration 46.1 µM): 117

CC(C)OC(=O)C(C(=O)OC(C)C)=C1S\C=C/S1
viability (top concentration 46.1 µM): 104

Cc1cc(O)c2c(c1)C(=O)c1cc(O)cc(O)c1C2=O
viability (top concentration 46.1 µM): 114

NC(=O)c1cccc(N)c1
viability (top concentration 46.1 µM): 109

CN(C)C/C=C/C(=O)Nc1cc2c(Nc3ccc(F)c(Cl)c3)ncnc2cc1O[C@H]1CCOC1
viability (top concentration 46.1 µM): 41.7

COc1ccc(CCC(=O)c2c(O)cc(O[C@@H]3O[C@H](CO)[C@@H](O)[C@H](O)[C@H]3O[C@@H]3O[C@@H](C)[C@H](O)[C@@H](O)[C@H]3O)cc2O)cc1O
viability (top concentration 46.1 µM): 57.9

CC(C)[C@H](CO)Nc1nc(Nc2cccc(Cl)c2)c2ncn(C(C)C)c2n1
viability (top concentration 46.1 µM): 21.1

C=CCn1c(=O)c2cnc(Nc3ccc(N4CCN(C)CC4)cc3)nc2n1-c1cccc(C(C)(C)O)n1
viability (top concentration 46.1 µM): 63.1

O=C1c2c(O)cc(O)cc2O[C@H](c2cc(O)c(O)c(O)c2)[C@H]1O
viability (top concentration 46.1 µM): 115

COc1ccc2[nH]cc(CCNC(C)=O)c2c1
viability (top concentration 46.1 µM): 106

Cc1cccc2c1CC[C@H](CN1CCC(c3c(Cl)cccc3Cl)CC1)C[C@@H]2O
viability (top concentration 46.1 µM): 89

CC(C)(N)c1ccc(-c2nc3ccccc3nc2-c2ccccc2)cc1
viability (top concentration 46.1 µM): 116

FC1=CC=C(SC/2=N/N3\C=N/C(=O)/C(=C3/C=C2)C4=C(Cl)C=CC=C4Cl)C(=C1)F
viability (top concentration 46.1 µM): 108

CC(=O)O[C@H]1C(=O)[C@]2(C)[C@@H](O)C[C@H]3OC[C@@]3(OC(C)=O)C2[C@H](OC(=O)C4=CC=CC=C4)[C@]5(O)C[C@H](OC(=O)[C@H](O)[C@@H](NC(=O)C6=CC=CC=C6)C7=CC=CC=C7)\C(=C1/C5(C)C)C (stereo partly drawn)
viability (top concentration 46.1 µM): 97.8

CCC1=C(C)CN(C(=O)NCCc2ccc(S(=O)(=O)NC(=O)N[C@H]3CC[C@H](C)CC3)cc2)C1=O
viability (top concentration 46.1 µM): 113

O=C1NC(=O)/C(=C/c2cccc(C(F)(F)F)c2)S1
viability (top concentration 46.1 µM): 106

N#Cc1cc(NC(=O)Nc2nnc(-c3ccncc3)s2)ccc1-c1cn[nH]c1
viability (top concentration 46.1 µM): 101

C[C@]12CC[C@H]3[C@@H](CCC4=CC(=O)CC[C@@H]43)[C@@H]1CC[C@@H]2OC(=O)CCc1ccccc1
viability (top concentration 46.1 µM): 118

O=NN(CCCl)C(=O)NCCCl
viability (top concentration 46.1 µM): 131

Cc1cccc(Nc2nc(N[C@@H]3CCCC[C@@H]3N)ncc2C(N)=O)c1
viability (top concentration 46.1 µM): 66.7

CC[N+](CC)(CC)CCOc1cccc(OCC[N+](CC)(CC)CC)c1OCC[N+](CC)(CC)CC
viability (top concentration 46.1 µM): 97.6

CC(C)c1ccccc1Cc1cc(C(=O)Nc2ccc([S+](=O)([O-])c3ccccc3C(C)(C)C)cc2)c(O)c(O)c1O
viability (top concentration 46.1 µM): 56.4

CN1CC(=O)N2[C@H](c3ccc4c(c3)OCO4)c3[nH]c4ccccc4c3C[C@@H]2C1=O
viability (top concentration 46.1 µM): 91.5

C=CCc1ccc(O)c(-c2ccc(O)c(CC=C)c2)c1
viability (top concentration 46.1 µM): 80.6

CC1(C)CC(=O)c2c(C(F)(F)F)nn(-c3ccc(C(N)=O)c(NC4CCC(OC(=O)CN)CC4)c3)c2C1 (stereo not drawn)
viability (top concentration 46.1 µM): 84.3

O=C(CCCCCCC(=O)Nc1ccc([C@H]2O[C@@H](CSc3nc(-c4ccccc4)c(-c4ccccc4)o3)C[C@@H](c3ccc(CO)cc3)O2)cc1)NO
viability (top concentration 46.1 µM): 115

CC1(C)CC(O)CC(C)(C)N1[O]
viability (top concentration 46.1 µM): 121

O=C(C[C@@H]1C/C=C\CCC(=O)O[C@H](c2ccccc2)CNC1=O)NCc1ccc(Cl)cc1
viability (top concentration 46.1 µM): 97.5

Nc1ccc([S+](=O)([O-])Nc2ncccn2)cc1
viability (top concentration 46.1 µM): 131

CC[S+](=O)([O-])N1CC(CC#N)(n2cc(-c3ncnc4[nH]ccc34)cn2)C1
viability (top concentration 46.1 µM): 144

Cc1ccc(C(=O)Nc2cccc(C(F)(F)F)c2)cc1Nc1nc(-c2cccnc2)nc2c1cnn2C
viability (top concentration 46.1 µM): 87.4

O=C(c1ccc(F)cc1)C1CCN(CCn2c(=O)[nH]c3ccccc3c2=O)CC1
viability (top concentration 46.1 µM): 110

C=C[C@H]1CN2CCC1C[C@H]2[C@H](O)c1ccnc2ccc(OC)cc12 (stereo partly drawn)
viability (top concentration 46.1 µM): 98.4

CCN1CCCC1CNC(=O)c1cc(S(=O)(=O)CC)c(N)cc1OC (stereo not drawn)
viability (top concentration 46.1 µM): 119

O=C(Nc1cccnc1)N1CCC(Cc2cccc(Oc3ccc(C(F)(F)F)cn3)c2)CC1
viability (top concentration 46.1 µM): 112

Oc1c(Cl)cc(Cl)c2cccnc12
viability (top concentration 46.1 µM): 128

C[C@@]12C[C@@]3(O)O[C@@H](O1)[C@]1(COC(=O)c4ccccc4)[C@H]3C[C@@]12O[C@@H]1O[C@H](CO)[C@@H](O)[C@H](O)[C@H]1O
viability (top concentration 46.1 µM): 115

O=C1NC(=O)/C(=C\c2ccc(-c3ccc(F)cc3)o2)S1
viability (top concentration 46.1 µM): 106

O=C(O)CCCc1ccc(N(CCCl)CCCl)cc1
viability (top concentration 46.1 µM): 111

COc1cc2c(Oc3ccc(NC(=O)C4(C(=O)Nc5ccc(F)cc5)CC4)cc3F)ccnc2cc1OCCCN1CCOCC1
viability (top concentration 46.1 µM): 23.1

Nc1nnc(-c2cccc(Cl)c2Cl)c(N)n1
viability (top concentration 46.1 µM): 82.5

Cc1cc(-c2ncc(CC(=O)Nc3ccc(-c4cnccn4)cn3)cc2C)ccn1
viability (top concentration 46.1 µM): 85.8

COc1ccc(C(C)=O)c(O)c1
viability (top concentration 46.1 µM): 103

CCCOc1ccc2[nH]c(NC(=O)OC)nc2c1
viability (top concentration 46.1 µM): 108

CCC(=O)O[C@@]1([C@H](C)C[C@H]2[C@@H]3C[C@H](F)\C4=C\C(=O)\C=C/[C@]4(C)[C@@]3(F)[C@@H](O)C[C@]12C)C(=O)SCF
viability (top concentration 46.1 µM): 162

CC(C)=CC[C@@H](O)C/1=C/C(=O)C2=C(O)C=CC(=C2C1=O)O
viability (top concentration 46.1 µM): 78.5

Cc1cccc(N(C)C(=S)Oc2ccc3ccccc3c2)c1
viability (top concentration 46.1 µM): 139

Cc1cnc(Nc2ccc(F)cc2Cl)nc1-c1c[nH]c(C(=O)N[C@H](CO)c2cccc(Cl)c2)c1
viability (top concentration 46.1 µM): 80.9

O=C(Nc1cccc(C(F)(F)F)c1)Nc1cc([S+](=O)([O-])NC2CC2)ccc1-c1ccsc1
viability (top concentration 46.1 µM): 124

CC(C)Cc1ccc(C(C)C(=O)O)cc1 (stereo not drawn)
viability (top concentration 23 µM): 103

C\C1=C(\C=C(\C#N)C(=O)N1)C2=CC=NC=C2
viability (top concentration 46.1 µM): 119

Cc1ccc(O)c(C(CCN(C(C)C)C(C)C)c2ccccc2)c1.Cl (stereo not drawn)
viability (top concentration 46.1 µM): 125

CN1CCCN=C1/C=C/c1cccs1.O=C(O)c1cc2ccccc2c(Cc2c(O)c(C(=O)O)cc3ccccc23)c1O
viability (top concentration 46.1 µM): 79.8

CC(C)c1ccc2oc3nc(N)c(C(=O)O)cc3c(=O)c2c1
viability (top concentration 46.1 µM): 116

CC(C)NCC(O)COc1ccc(COCCOC(C)C)cc1 (stereo not drawn)
viability (top concentration 46.1 µM): 117

C[C@H](NC(=O)/C(C#N)=C/c1cccc(Br)n1)c1ccccc1
viability (top concentration 46.1 µM): 31.7

COCC1(CO)C(=O)C2CCN1CC2 (stereo not drawn)
viability (top concentration 46.1 µM): 108

CN1\C=N/C2=CC=C(NC3=CC(=CC=C3C)NC(=O)C4=CC(=CC=C4)C(C)(C)C#N)C=C2C1=O
viability (top concentration 46.1 µM): 96.2

C[C@@H](NC(=O)c1ncnc(N)c1Cl)c1ncc(C(=O)Nc2cc(C(F)(F)F)c(Cl)cn2)s1
viability (top concentration 46.1 µM): 109

CCCCCC[C@H]1C(=O)O[C@H](C)[C@H](NC(=O)c2cccc(NC=O)c2O)C(=O)O[C@@H](C)[C@@H]1OC(=O)CC(C)C
viability (top concentration 46.1 µM): 97.1

Cc1coc2c1C(=O)C(=O)c1c-2ccc2c(C)cccc12
viability (top concentration 46.1 µM): 115

C[C@](O)(COc1ccc(C#N)cc1)C(=O)Nc1ccc(C#N)c(C(F)(F)F)c1
viability (top concentration 46.1 µM): 93.8

Nc1ccccc1NC(=O)c1ccc(CNc2nccc(-c3cccnc3)n2)cc1
viability (top concentration 46.1 µM): 85.9

Cl.c1cnc2cc3c(cc2n1)C1CNCC3C1
viability (top concentration 46.1 µM): 107

N/C1=N/C(=O)C/2=C(NC[C@@H](CNC3=CC=C(C=C3)C(=O)N[C@@H](CCC([O-])=O)C([O-])=O)N2C=O)\N1
viability (top concentration 46.1 µM): 132

CC(C)c1ccc2c(c1)c(SC(C)(C)C)c(CC(C)(C)C(=O)[O-])n2Cc1ccc(Cl)cc1
viability (top concentration 46.1 µM): 115

COc1ccc(-n2c(C)c([N+](=O)[O-])c3ccc(O)cc32)cc1
viability (top concentration 46.1 µM): 87

CC[C@@]1(O)C(=O)OCC/2=C1/C=C3\N(CC4=CC5=CC(=CC=C5N=C34)O)C2=O
viability (top concentration 46.1 µM): 42.5

CCN1CCN(c2ccc(Nc3cc(N(C)C(=O)Nc4c(Cl)c(OC)cc(OC)c4Cl)ncn3)cc2)CC1
viability (top concentration 46.1 µM): 117

CNC(=O)c1cc(COc2nnc(Nc3ccc(Cl)cc3)c3ccoc23)ccn1
viability (top concentration 46.1 µM): 113

OCC(O)C(O)C(O)CO (stereo not drawn)
viability (top concentration 46.1 µM): 97.1

Cn1cnc2c(F)c(Nc3ccc(Br)cc3Cl)c(C(=O)NOCCO)cc21
viability (top concentration 46.1 µM): 73.7

COc1ncnc(N[S+](=O)([O-])c2ccc(N)cc2)c1OC
viability (top concentration 46.1 µM): 137

CN1CC/C(CC1)=C3\c4ccccc4CC(=O)c2sccc23
viability (top concentration 46.1 µM): 97.2

O=C1CCCC(=O)C1C(=O)c1ccc(C(F)(F)F)cc1[N+](=O)[O-]
viability (top concentration 46.1 µM): 104

CCC(=C/[C@H](C)C/C=C/C(C)=C/[C@@H](C)C(=O)[C@@H](C)[C@H](O)[C@@H](C)C/C(C)=C/C(=O)O)/C=C/[C@@H]1OC(=O)C=C[C@@H]1C
viability (top concentration 1.84 µM): 97.2

Cc1cc(O)c2c(c1)C(=O)c1cccc(O)c1C2=O
viability (top concentration 46.1 µM): 95.5

CC(C)(O)[C@H]1CC[C@@](C)([C@H]2[C@@H](O)C[C@@]3(C)[C@@H]4C[C@H](O[C@@H]5O[C@H](CO)[C@@H](O)[C@H](O)[C@H]5O)[C@H]5C(C)(C)[C@@H](O[C@@H]6OC[C@@H](O)[C@H](O)[C@H]6O)CC[C@@]56C[C@@]46CC[C@]23C)O1
viability (top concentration 46.1 µM): 119

NC(CO)C(=O)NNCc1ccc(O)c(O)c1O (stereo not drawn)
viability (top concentration 46.1 µM): 96.3

O=C(O[C@H]1C[C@H]2CC[C@@H](C1)[N+]21CCCC1)C(O)(c1ccccc1)c1ccccc1.[Cl-]
viability (top concentration 46.1 µM): 140

CCc1nc(-c2cccc(C)c2)c(-c2ccnc(NC(=O)c3ccccc3)c2)s1
viability (top concentration 46.1 µM): 108
